# Test results: US20210186927A1, “COMBINATION PRODUCT FOR THE INDUCTION AND/OR MAINTENANCE OF GENERAL ANESTHESIA” (priority 2018, published 2021)
# Read-outs that look alike come from different tables or passages of the source.
# Tests used:
# male Sprague Dawley rats [1] = type: in vivo, rat
# Description: Decreases in spontaneous locomotor and/or exploratory activity: Immediately after administration of each bolus injection, the animal was assessed for any changes in spontaneous locomotor and/or exploratory activity. […] If the spontaneous righting reflex (see here below) had not been lost after dosing but sedation was observed, the animal was monitored at regular intervals to assess the duration of the induced sedation.
# male Sprague Dawley rats [2] = type: in vivo, rat; remark: listed apart in the source
# Description: The spontaneous righting reflex: Before and at a series of set time points following each bolus injection, the animal was placed on its back and righting time measured. Righting normally occurs under 15 seconds. Whenever the animal was unable to right itself, it was considered that the spontaneous righting reflex had been lost and unconsciousness induced.
# Duration of unconsciousness: The time lapse since the loss of the spontaneous righting reflex until its recovery was recorded and considered a measurement of the overall duration of unconsciousness.
# KOR = KOR (Homo sapiens, UniProt P41145); conditions: cited from earlier work
# MOR = MOR (Homo sapiens, UniProt P35372); conditions: cited from earlier work
# DOR = DOR (Homo sapiens, UniProt P41143); conditions: cited from earlier work
# rats [3] = conditions: cited from earlier work
# rats [4] = conditions: 1.0-3.0 mg/kg i.p.; cited from earlier work
# mice [5] = conditions: 0.5-2 mg/kg i.p.; cited from earlier work
# Rhesus monkeys = conditions: cited from earlier work
# rats [6] = conditions: 0.25-2 mg/kg i.p.; cited from earlier work
# mice [7] = conditions: cited from earlier work
# rats [8] = conditions: 10 mg/kg i.p.; cited from earlier work
# healthy humans = conditions: cited from earlier work
# monkeys = conditions: drug-discrimination study; cited from earlier work
# KOR, sequence (P41145 whole entry): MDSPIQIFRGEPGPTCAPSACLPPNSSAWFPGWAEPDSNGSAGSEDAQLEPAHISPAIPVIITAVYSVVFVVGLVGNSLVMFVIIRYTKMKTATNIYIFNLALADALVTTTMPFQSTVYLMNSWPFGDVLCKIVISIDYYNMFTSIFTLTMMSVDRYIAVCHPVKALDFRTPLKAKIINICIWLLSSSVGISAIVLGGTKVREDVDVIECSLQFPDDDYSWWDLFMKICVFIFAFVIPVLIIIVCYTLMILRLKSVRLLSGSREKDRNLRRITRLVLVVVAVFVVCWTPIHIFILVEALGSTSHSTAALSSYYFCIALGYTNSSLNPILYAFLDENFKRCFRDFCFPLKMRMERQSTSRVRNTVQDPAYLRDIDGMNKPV
# DOR, sequence (P41143 whole entry): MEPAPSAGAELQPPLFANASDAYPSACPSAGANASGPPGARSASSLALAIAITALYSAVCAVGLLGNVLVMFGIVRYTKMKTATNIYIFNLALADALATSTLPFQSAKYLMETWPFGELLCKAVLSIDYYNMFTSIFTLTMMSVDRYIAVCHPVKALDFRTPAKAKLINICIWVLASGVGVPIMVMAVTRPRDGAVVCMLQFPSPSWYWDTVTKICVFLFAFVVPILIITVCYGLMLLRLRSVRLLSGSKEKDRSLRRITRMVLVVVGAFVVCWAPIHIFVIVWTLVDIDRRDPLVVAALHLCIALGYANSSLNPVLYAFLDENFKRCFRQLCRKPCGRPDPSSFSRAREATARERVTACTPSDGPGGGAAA
# MOR, sequence (P35372 whole entry): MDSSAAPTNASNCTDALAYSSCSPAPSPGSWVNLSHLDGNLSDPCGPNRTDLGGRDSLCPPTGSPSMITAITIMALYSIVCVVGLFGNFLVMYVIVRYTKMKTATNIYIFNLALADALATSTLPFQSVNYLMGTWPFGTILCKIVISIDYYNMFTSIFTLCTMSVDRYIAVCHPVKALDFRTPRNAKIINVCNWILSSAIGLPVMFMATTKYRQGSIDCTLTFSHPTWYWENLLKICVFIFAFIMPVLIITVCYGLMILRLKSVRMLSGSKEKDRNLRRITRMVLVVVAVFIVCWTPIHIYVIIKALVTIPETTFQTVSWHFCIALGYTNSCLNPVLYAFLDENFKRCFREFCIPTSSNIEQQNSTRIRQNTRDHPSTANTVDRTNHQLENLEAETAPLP
structure (smiles),measurement,setting,value
"COC(=O)[C@@H]1C[C@H](OC(C)=O)C(=O)[C@H]2[C@@]1(C)CC[C@H]1C(=O)O[C@H](c3ccoc3)C[C@]21C [SA, Salvinorin A]",time at which locomotor and exploratory activity were comparable to pre-injection values,male Sprague Dawley rats [1]; SA alone 6.2 mg/kg i.v.,30 min
same,sedation,"male Sprague Dawley rats [1]; SA alone 6.2 mg/kg i.v., Example 2 Rat number 2",mild sedation
same,time at which locomotor and exploratory activity were comparable to baseline,male Sprague Dawley rats [1]; SA alone 6.4 mg/kg i.p.,30 min
same,sedation,"male Sprague Dawley rats [1]; SA alone 6.4 mg/kg i.p., Example 1 Rat number 2",light sedation
same,time at which locomotor and exploratory activity were comparable to pre-injection values,male Sprague Dawley rats [1]; SA alone 12.0 mg/kg i.v.,30 min
same,sedation,"male Sprague Dawley rats [1]; SA alone 12.0 mg/kg i.v., Example 2 Rat number 3",mild sedation
same,time at which locomotor and exploratory activity were comparable to baseline,male Sprague Dawley rats [1]; SA alone 12.9 mg/kg i.p.,40 min
same,sedation,"male Sprague Dawley rats [1]; SA alone 12.9 mg/kg i.p., Example 1 Rat number 3",slight sedation of longer duration
same,loss of consciousness or general anesthesia,male Sprague Dawley rats [2]; SA alone 6.2 mg/kg i.v.,no loss of consciousness or general anesthesia
same,righting time (spontaneous righting reflex),"male Sprague Dawley rats [2]; SA alone 6.2 mg/kg i.v., 10 minutes after injection",8 s
same,loss of consciousness or general anesthesia,male Sprague Dawley rats [2]; SA alone 6.4 mg/kg i.p.,no loss of consciousness or general anesthesia
same,righting time (spontaneous righting reflex),"male Sprague Dawley rats [2]; SA alone 6.4 mg/kg i.p., 1-40 min after injection",1 to 2 s
same,loss of consciousness or general anesthesia,male Sprague Dawley rats [2]; SA alone 12.0 mg/kg i.v.,no loss of consciousness or general anesthesia
same,righting time (spontaneous righting reflex),"male Sprague Dawley rats [2]; SA alone 12.0 mg/kg i.v., 5 minutes after injection",12 s
same,loss of consciousness or general anesthesia,male Sprague Dawley rats [2]; SA alone 12.9 mg/kg i.p.,no loss of consciousness or general anesthesia
same,righting time (spontaneous righting reflex),"male Sprague Dawley rats [2]; SA alone 12.9 mg/kg i.p., 1-40 min after injection",1 to 2 s
same,affinity and potency values at the KOR,KOR,nanomolar range
same,type of activity at the KOR,KOR,full agonist
same,affinity for the MOR,MOR,no affinity
same,affinity for the DOR,DOR,no affinity
same,effect on spontaneous locomotor activity,"rats [3]; 0.25-2 mg/kg i.p., rats",did not affect spontaneous locomotor activity
same,effect on locomotor activity,"rats [3]; 0.4 and 0.64 mg/kg subcutaneously, rats",had no effects
same,effect on locomotor activity,rats [3]; repeated daily injections of 2 mg/kg i.p.,increased locomotor activity
same,effect on locomotor activity,rats [3]; single 2 mg/kg i.p.,no effect
same,changes in response rates,rats [4],No significant changes
same,sedation and coordination,mice [5],mild sedation and a loss of coordination
same,sedation,Rhesus monkeys; 0.032 mg/kg i.v.,sedative effects
same,sedation,Rhesus monkeys; 0.032 mg/kg s.c.,did not lead to overt sedation
same,sedation,"Rhesus monkeys; i.v., maximum dose of 0.1 mg/kg",sedative effects
same,immobility in the forced swimming test,rats [6],increased immobility
same,analgesic effects,mice [7]; 7.5 μg intracerebroventricularly,active
same,analgesic effects,mice [7]; 5 mg/kg i.p.,no analgesic effects
same,antinociceptive effects,mice [7]; 0.5-4 mg/kg intraperitoneally,dose-dependent antinociceptive effects
same,antinociceptive effects,rats [8],no effects
same,acute effects in humans,healthy humans; acute administration to humans,intense visual and auditory hallucinations without loss of consciousness
same,dose at which the effects are already noticeable,healthy humans; humans,0.25 mg
same,psychometric measurements of sedation (PCAG subscale of the Addiction Research Center Inventory),healthy humans; humans,no significant dose-dependent increases
same,generalization between SA and ketamine,monkeys,did not find that any generalization between the two drugs is applicable
"CN1C(=O)CN=C(c2ccccc2)c2cc(Cl)ccc21 [diazepam, Diazepam, reference compound]",sedation,"male Sprague Dawley rats [1]; rat, in vivo",clear sedation
same,time of full recovery of spontaneous locomotor and exploratory activity,"male Sprague Dawley rats [1]; rat, in vivo",1 h
same,time of partial recovery of spontaneous locomotor and exploratory activity,"male Sprague Dawley rats [1]; rat, in vivo",30 min
same,time to decrease in spontaneous locomotor and exploratory activity,"male Sprague Dawley rats [1]; rat, in vivo",1 min
same,time to sedation,"male Sprague Dawley rats [1]; rat, in vivo",immediately after the end of the injection
same,loss of consciousness or general anesthesia,"male Sprague Dawley rats [2]; rat, in vivo",did not induce loss of consciousness or general anesthesia
same,righting time (spontaneous righting reflex),"male Sprague Dawley rats [2]; rat, in vivo",2 to 3 s
"Cc1cccc(C(C)c2cnc[nH]2)c1C (centres unmarked) [medetomidine, Medetomidine, reference compound]",sedation,"male Sprague Dawley rats [1]; rat, in vivo",sedative effect
same,sedation lasted until,"male Sprague Dawley rats [1]; rat, in vivo",30 min
same,time to sedation after the injection,"male Sprague Dawley rats [1]; rat, in vivo",30 s
same,loss of consciousness or general anesthesia,"male Sprague Dawley rats [2]; rat, in vivo",did not induce loss of consciousness or general anesthesia
same,righting time (spontaneous righting reflex),"male Sprague Dawley rats [2]; rat, in vivo",2 to 3 s
